Measured values published in article PMC7459852, “Identification of 6-(piperazin-1-yl)-1,3,5-triazine as a chemical scaffold with broad anti-schistosomal activities” (Wellcome Open Research, 2020).
Where two headings read alike, the source gives them in different places.

Legend:
[1] = test system: S. mansoni schistosomula; assay: Schistosomula screens (Roboworm, phenotype and motility); assay type: cell-based, Schistosoma mansoni; conditions: 72 h; for EC50: Schistosoma mansoni
Method: Anthelmintic activity on the schistosomula stage of S. mansoni was evaluated using Roboworm, an integrated high-throughput, high content image analysis platform originally developed by Paveley et al. and subsequently used by our research group as previously described, [28], [50], [51]. Alternatively, the computer application Worminator can be used to assess motion of microscopic parasites such as the schistosomula stage of S. mansoni. Compounds (as single concentration or two-fold titrations) were prepared for screening in a 384-well plate (PerkinElmer, MA, USA), where solutions (1.6 mM, 0.5 μl) were wet stamped using the Biomek NX ^P liquid handling platform into Basch medium (20 μl). Negative (0.625% DMSO) and positive (Auranofin - AUR - at 10 µM final concentration in 0.625% DMSO) control wells were similarly prepared. Mechanically transformed schistosomula (about 120 parasites in 60 μl of Basch medium) were distributed into each treated well using a WellMate (Thermo Scientific, Loughborough, UK). Schistosomula/compound co-cultures were then incubated at 37°C for 72 h in a humidified atmosphere containing 5% CO 2. At 72 h, parasite/compound co-cultures were resuspended and tissue culture plates were imaged under the same conditions (37°C for 72 h in a humidified atmosphere containing 5% CO 2) using an ImageXpressXL high content imager (Molecular Devices, UK) with subsequent images processed for phenotype and motility as previously reported. Plate analysis returned a phenotype and motility score for each well and any scores below -0.15 and -0.35 (defined threshold anti-schistosomula values for phenotype and motility scores, respectively) defined a condition displaying anti-schistosomula activity. Compound screens were assessed based on the Z´ values (derived from the means and standard deviations of positive and negative controls) and those equal to or above 0.3 for both phenotype and motility were considered successful.
Phenotype and motility scores of each titration were used to generate dose response curves in GraphPad Prism 7.02 based on the corrected average score of the three replicates for each data point.

[2] = MTT cytotoxicity assay on HepG2 cells; assay type: cell-based, Human; conditions: human, HepG2 cells, MTT, 24 h; three dose response titrations (200 - 1 µM)
Method: (§1) Compound cytotoxicity on Human Hepatocyte Carcinoma (HepG2) cells (85011430, Sigma Aldrich) was elucidated by the MTT (3-(4,5-dimethylthiazol-2-yl)-2,5-diphenyltetrazolium bromide) tetrazolium reduction assay as previously described, [28], [50]. Briefly, HepG2 cells were seeded at a density of 20,000 per well in 96-well black, clear bottom falcon plate in modified BME medium (50 μl; containing 1% antibiotic/mycotic (Sigma-Aldrich, Gillingham, UK), 1% 200 mM L-glutammine (Gibco, Paisley, UK), 1% MEM non-essential amino acid solution (Gibco, Paisley, UK), and 10% fetal bovine serum (Gibco, Paisley, UK)). HepG2 plates seeded for cytotoxicity screens were treated with compounds 24 h post-seeding. Each compound was tested at 200, 100, 75, 50, 20, 10 and 1 µM; each concentration was assayed in triplicate. Blank wells (no cells), as well as positive (1% v/v Triton X-100, X100, Sigma-Aldrich) and negative (1.25% v/v DMSO or media only) controls, were included in each plate. After addition of compounds, each plate was then incubated for a further 20 h before application of MTT reagent for assessment of compound cytotoxicity (4 h incubation with MTT for a total 24 h cell-drug incubation). The absorbance reading at 570 nm was measured with a POLARstar Omega (BMG Labtech, UK) microtiter plate reader. Dose response curves were generated in GraphPad Prism 7.02 based on the corrected average absorbance of the three replicates for each concentration point.

[3] = test system: schistosomula and adult schistosomes; design: method as in PMID 31730617; conditions: SGC collection tested by the authors' laboratory; cited from earlier work
[4] = test system: HepG2 cells; assay: MTT cytotoxicity assay on HepG2 cells; assay type: cell-based, Human; conditions: for cytotoxicity on HepG2 cells (in words): dose response titration
Method: as §1

[5] = test system: S. mansoni miracidia; assay: Miracidia to sporocyst transformation screens; assay type: cell-based, Schistosoma mansoni; conditions: 10 µM, 48 h
Method: Following hatching of S. mansoni eggs, miracidia were incubated on ice for 15 min and then centrifuged at 700 x g for 5 min at 4°C. The miracidia pellet was then re-suspended in 5 ml of Chernin's balanced salt solution (CBSS), subjected to pelleting and two subsequent washes (all at 700 x g for 5 min at 4°C). Afterwards, the supernatant was carefully removed with a serological pipette and the miracidia-enriched pellet was resuspended with CBSS supplemented with 1 mg/ml each of glucose and trehalose and 500 µl of Penicillin-Streptomycin (containing 10,000 units penicillin and 10 mg streptomycin/ml, P4333, Sigma-Aldrich). In preparation for the screens, CBSS (250 µl) was aliquoted to each well of a 24-well plate followed by addition of each compound in DMSO (1 mM concentration in 1% DMSO) or DMSO alone (1%, negative control). Next, approximately 20-25 miracidia (in 250 µl of CBSS) were aliquoted to each well. […] Both preliminary and secondary screens were performed in duplicate on two separate occasions (two independent biological replicates). Miracidia were incubated for 48 h at 26°C before being evaluated using an Olympus inverted light microscope for morphological and behavioural changes differing from the control wells. Dead, partially transformed and fully transformed miracidia were enumerated in the DMSO control and the assay plates as previously described, [23], [59]. […] Absence of ciliated plates attached to the surface of the parasite and formation of sporocyst tegument defined the so-called “fully transformed” parasites.

[6] = test system: S. mansoni adult worms; assay: Adult worm screens (WormassayGP2 motility, egg count); assay type: cell-based, Schistosoma mansoni; conditions: 72 h; for adult worm motility and oviposition: 6.25 µM, compared to compound 7; for adult worm egg production / adult worm motility compared to compound 7: 12.5 µM
Method: For compound screening, adult worms (three worm pairs/well for compound 7 and the hit compounds of set two; one worm pair/well for the hit compounds of set three) were transferred into wells of a 48-well tissue culture plate containing 1 ml of adult worm media. Adult worms were treated with compounds previously identified as hits at 10 µM on 72 h cultured schistosomula. Worms were dosed with an appropriate volume of 10 mM stock solution of each compound (in DMSO) to have a concentration range of 50 – 6.25 µM (up to 0.5% DMSO, primary screen of compound 7). Secondary screens were performed on the structural analogues of compound 7 (only the schistosomula hits at 10 µM) at a single concentration (12.5 µM) and compared to the same concentration of the parental compound (included in the screen as reference). DMSO (0.5%) and praziquantel (10 µM in 0.5% DMSO) were also included as negative and positive control treatments (both primary and secondary screens). Treated adult worms were incubated for 72 h in a humidified environment at 5% CO 2 at 37°C. Parasite motility after drug treatment was assessed by a digital image processing-based system (WormassayGP2, see Software availability) modified after Wormassay, [56], [57]. Egg production was assessed according to the methodology described by Edwards et al..

[7] = dose response titrations (10 - 0.625 µM), read-out: Schistosomula EC50 Motility
[8] = dose response titrations (10 - 0.625 µM), read-out: Schistosomula EC50 Phenotype
[9] = average of phenotype and motility metrics, read-out: Schistosomula EC50 Average

| EC50 [1, 7] | EC50 [1, 8] | EC50 [1, 9] | Structure (SMILES) | activity on schistosomula and adult schistosomes [3] | other results |
| --- | --- | --- | --- | --- | --- |
| 1.64 µM | 2.09 µM | – | c1ccc(Nc2nc(N3CCNCC3)nc(N3CCOCC3)n2)cc1 [Compound 22] | – | anti-schistosomula activity (hit on phenotype and motility) ([1]; 50 µM): active at the highest concentration; CC50 at 24 h [2]: 93.5 µM |
| – | – | – | Clc1cc2c(NC3CCCC3)nnc(-c3ccncc3)c2cc1Cl [Compound A-196] | potent activities | – |
| – | – | – | Cc1cn(CCN2CCN(c3ccccc3-c3cc(C#N)cc(C(=O)NCCCN4CCCC4)c3)CC2)c2ccccc12 [LLY-507] | potent activities | – |
| – | – | – | CC(C)Oc1ccc(-c2c[nH]cc2CN(C)CCN)cc1 [MS023] | potent activities | – |
| – | – | – | COc1cc(C(=O)N2CC[C@@H](O)[C@@H](N)C2)cc2nc(-c3cc4ccccc4n3CC3CC3)n(C)c12 [GSK484] | potent activities | – |
| – | – | – | CCCc1cc(C)[nH]c(=O)c1CNC(=O)c1cc(-c2ccnc(N3CCN(C)CC3)c2)cc2c1cnn2C(C)C [GSK343] | potent activities | – |
| 2.79 µM | 3.06 µM | – | Cc1ccc(Nc2nc(C3CCCCC3)nc(N3CCNCC3)n2)cc1 [Compound 23] | – | anti-schistosomula activity (hit on phenotype and motility) ([1]; 50 µM): active at the highest concentration; CC50 at 24 h [2]: < 10 µM; CC50 ([4]; MTT, 24 h, three dose response titrations (200 - 1 µM)): 6.73 µM; cytotoxicity on HepG2 cells (in words) [4]: showed the highest toxicity; effect on miracidia [5]: readily killed miracidia; adult worm motility and oviposition [6]: strong anthelmintic activities; adult worm egg production [6]: greater potency than compound 7; adult worm motility compared to compound 7 [6]: greater potency than compound 7 |
| – | – | – | CCN(C(=O)CO)[C@H]1CN(/C(=N\C#N)Nc2cccc(OC(F)F)c2)N=C1c1ccc(Cl)c(Cl)c1 [BAY-598] | potent activities | – |
| 1.81 µM | 1.57 µM | – | Cc1ccc(Nc2nc(N3CCNCC3)nc(N3CCN(c4ccccc4)CC3)n2)cc1 [Compound 24] | – | anti-schistosomula activity (hit on phenotype and motility) ([1]; 50 µM): active at the highest concentration; cytotoxicity on HepG2 cells (in words) [4]: showed the highest toxicity; effect on miracidia [5]: readily killed miracidia; adult worm motility and oviposition [6]: the most potent; adult worm egg production [6]: greater potency than compound 7; adult worm motility compared to compound 7 [6]: greater potency than compound 7 |
| – | – | – | CCOC(=O)CCNc1cc(N2CCc3ccccc3CC2)nc(-c2ccccn2)n1 [GSK-J4] | potent activities | – |
| > 50 µM | > 50 µM | > 50 µM | C1CN(c2nc(N3CCOCC3)nc(N3CCOCC3)n2)CCN1 [Compound 10] | – | – |
| > 10 µM | > 10 µM | – | C1CCN(c2nc(N3CCCC3)nc(N3CCNCC3)n2)C1 [Compound 17] | – | anti-schistosomula activity (hit on phenotype and motility) ([1]; 50 µM): active at the highest concentration |
| > 50 µM | > 50 µM | > 50 µM | O=S(=O)(c1ccc(Cl)cc1)N1CCN(c2nc(N3CCCCC3)nc(N3CCCCC3)n2)CC1 [Compound 18] | – | – |
| 4.41 µM | 4.57 µM | 4.49 µM | c1ccc(CNc2nc(Nc3ccccc3)nc(N3CCNCC3)n2)cc1 [Compound 12] | – | CC50 at 24 h [2]: 11 µM; effect on miracidia [5]: readily killed miracidia; adult worm egg production [6]: reducing egg production similarly to compound 7; adult worm motility compared to compound 7 [6]: more potent than the original hit compound |
| > 50 µM | > 50 µM | > 50 µM | O=C(c1ccc(Cl)cc1)N1CCN(c2nc(N3CCCCC3)nc(N3CCCCC3)n2)CC1 [Compound 19] | – | – |
| 4.82 µM | 4.7 µM | 4.76 µM | Cc1ccccc1Nc1nc(Nc2ccccc2C)nc(N2CCNCC2)n1 [Compound 13] | – | CC50 at 24 h [2]: 17.9 µM; effect on miracidia [5]: readily killed miracidia |
| > 10 µM | > 10 µM | > 10 µM | Cc1ccccc1Nc1nc(N2CCNCC2)nc(N2CCOCC2)n1 [Compound 14] | – | anti-schistosomula activity (hit on phenotype and motility) ([1]; 50 µM): only active at 50 µM |
| > 50 µM | > 50 µM | > 50 µM | c1ccc2sc(N3CCN(c4nc(N5CCOCC5)nc(N5CCOCC5)n4)CC3)nc2c1 [Compound 11] | – | – |
| 4.98 µM | 3.27 µM | 4.12 µM | c1ccc(Nc2nc(Nc3ccccc3)nc(N3CCNCC3)n2)cc1 [Compound 8] | – | CC50 at 24 h [2]: 14.9 µM; effect on miracidia [5]: readily killed miracidia; adult worm egg production [6]: reducing egg production similarly to compound 7; adult worm motility compared to compound 7 [6]: more potent than the original hit compound |
| 1.79 µM | 1.09 µM | 1.44 µM | Cc1ccc(Nc2nc(N3CCNCC3)nc(N3CCOCC3)n2)cc1 [Compound 15] | – | CC50 at 24 h [2]: 23.9 µM; effect on miracidia [5]: all readily killed miracidia except for compounds 15 and 16; adult worm egg production [6]: reducing egg production similarly to compound 7; adult worm motility compared to compound 7 [6]: more potent than the original hit compound |
| > 50 µM | > 50 µM | > 50 µM | O=[N+]([O-])c1ccc2nc(N3CCN(c4nc(N5CCOCC5)nc(N5CCOCC5)n4)CC3)sc2c1 [Compound 21] | – | – |
| – | – | – | O=C1CNC(=O)/C1=C\Nc1ccc(O)cc1 [Compound 4] | – | anti-schistosomula activity (hit on phenotype and motility) ([1]; 50 µM): showed anti-schistosomal activity; schistosomula phenotype induced ([1]; 50 µM): elongated phenotype |
| – | – | – | CCCc1cc(C)[nH]c(=O)c1CNC(=O)c1cc(-c2ccc(N3CCN(C(C)C)CC3)nc2)cc2c1cnn2C(C)C [UNC1999] | potent activities | – |
